Data from patent US20260035376A1, “COMPOSITIONS AND METHODS FOR INHIBITION OF RAS” (TheRas, Inc., priority 2022, published 2026).

Assays:
[1] = system: KRAS G12D protein/effector signaling in GP2d cells; experiment: Cell-based pERK HTRF assay in GP2d cell; details: 60 min incubation
Experimental: A pERK assay (Perkin Elmer) was used to determine the effectiveness of compounds in disrupting KRAS G12D protein/effector signaling in cells.
On Day 1, cells (GP2d) were seeded into 96-well plates at 3×10^4 cells/well in 80 μL complete growth media (DMEM, 10% FBS).
(§1) On Day 2, cells were treated with compounds at 0.25% DMSO. The source plate was created with compounds diluted in media at 5-fold the final assay concentration. The compounds were run in a 9-point concentration curve starting at 1 M, with a half-log dilution between concentrations. 20 μL was transferred onto the cell plates (final volume in wells was 100 μL). Plates were harvested after 60 min incubation by aspirating media and adding kit-supplied 1× supplemented lysis buffer to all wells (50 μL per well). Plates were then placed on a plate shaker and incubated at 850 rpm for an additional 30 min.
Antibody mixture solution was prepared by diluting aliquoted d2 and Eu Cryptate antibodies 1:20 in kit supplied detection buffer, and mixing the diluted antibodies solutions (1:1 v:v). 4 μL of this solution was then added to a 384-well detection plate (Perkin Elmer; 6008230).
(§2) Samples were homogenized by pipetting up and down and then transferred (16 μL of cell lysates) from the 96-well cell culture plate to two wells of the HTRF 384-well detection plate containing the antibody solution. Plates were centrifuged (524 g for 1 min) and allowed to incubate between 4 and 24 h at room temperature. Maximum signal was reached after 4 h incubation time and remained stable over a period of 24 hours. Therefore, readings could be made between 4 and 24 h of incubation. Plates were centrifuged again (524 g for 1 min), then analyzed on the EnVision plate reader using the following settings: Excitation 320 nm, Bandwidth 75 nm; Emission 615 nm, Bandwidth 85 nm; Gain 100%; Flashes 100; Lag 60 μs.

[2] = system: KRAS G12V protein/effector signaling in SW620 cells; experiment: Cell-based pERK HTRF assay in SW620 cell; details: Homo sapiens, SW-620, 1 h incubation
Experimental: pERK assay (Perkin Elmer) was used to determine the effectiveness of compounds in disrupting KRAS G12V protein/effector signaling in cells.
On Day 1, cells (SW620) were seeded into 96-well plates at 3×10^4 cells/well in 80 μL complete growth media (DMEM, 10% FBS).
as §1, with “10 μM,” for “1 M,”, “1 h” for “60 min”
Antibody mixture solution was prepared by diluting aliquoted d2 and Eu Cryptate antibodies 1:20 in kit supplied detection buffer, and mixing the diluted antibodies solutions (1:1 v:v). Four μL of this solution was then added to a 384-well detection plate (Perkin Elmer; 6008230).
as §2

[3] = biological target: T1, Avi-KRAS G12D (1-169) GppNHp/RAF1 RBD-3×FLAG (52-151) (Homo sapiens, UniProt P01116, G12D); experiment: Disrupting RAS-effector binding HTRF assay, Raf1 RBD-KRAS G12D-GppNHp; details: PPI HTRF, 50 nM Avi-KRAS G12D GppNHp, compound titration 30-0.0045 μM; read-out: Raf1 RBD-KRAS G12D-GppNHp disruption
T1 construct: 50 nM Avi-KRAS G12D (1-169) GppNHp/RAF1 RBD-3×FLAG (52-151)
Experimental: (§3) A protein:protein interaction (PPI) Homogeneous Time Resolved Fluorescence (HTRF) assay was used to determine the effectiveness of compounds of the present disclosure in disrupting KRAS protein and effector RAF1 binding.
(§4) The HTRF assay used the following reagents and proteins: (i) 50 nM Avi-KRAS G12D (1-169) GppNHp/RAF1 RBD-3×FLAG (52-151); (ii) 50 nM Avi-KRAS G12R (1-169) GppNHp/RAF1 RBD-3×FLAG (52-151); (iii) 50 nM Avi-KRAS G12V (1-169) GppNHp/RAF1 RBD-3×FLAG (52-151), (iv) 50 nM Avi-KRAS WT (1-169) GppNHp/RAF1 RBD-3×FLAG (52-151); and (v) 75 nM Avi-RAF1 RBD-3×FLAG. The assay buffer included: 50 mM Tris pH 7.5, 100 mM NaCl, 5 mM MgCl2, 0.1% BSA, […], 10% DMSO. The bead buffer included: 50 mM Tris pH 7.5, 0.01% o Tween 20. Assay volume of 20 μL was used in a 384 well plate-low volume format. Compound titration: 30-0.0045 μM, 3× dilution series.
(§5) The HTRF assay employed the following protocol:
(§6) Compounds were dispensed in assay plate (384-well, Grenier Bione #784075) using Echo (model 555) with dose response settings: 200 nL final volume, titration from 30 μM as a 10-point dilution series. Protein mix was prepared in assay buffer, and dispensed on plates, 10 μL per well, then incubated for 1 h at room temperature, with 700 rpm shaking. Reagents mix was prepared and dispensed on plates, 10 μL per well, then incubated for 1 h at room temperature, with 700 rpm shaking.
(§7) Plates were analyzed on an Envision plate reader using the following setting: Excitation 320 nm, Bandwidth 75 nM; Emission 615 nm, Bandwidth 85 nM, Gain 100%, Flashes 100, Lag 60 μs. Data were reported as percentage of activity, with DMSO as 100%. Data were plotted and analyzed using Prism 8.
(§8) The biochemical Raf1-KRAS G12D/G12R/G12V/WT-GppNHP disruption assay IC50 of selected compounds described herein are shown in Table 4.

[4] = biological target: T2, Avi-KRAS G12V (1-169) GppNHp/RAF1 RBD-3×FLAG (52-151) (Homo sapiens, UniProt P01116, G12V); experiment: Disrupting RAS-effector binding HTRF assay, Raf1 RBD-KRAS G12V-GppNHp; details: PPI HTRF, 50 nM Avi-KRAS G12V GppNHp, compound titration 30-0.0045 μM; read-out: Raf1 RBD-KRAS G12V-GppNHp disruption
T2 construct: 50 nM Avi-KRAS G12V (1-169) GppNHp/RAF1 RBD-3×FLAG (52-151)
Experimental: as §3, §4, §5, §6, §7, §8

[5] = biological target: T3, Avi-KRAS G12R (1-169) GppNHp/RAF1 RBD-3×FLAG (52-151) (Homo sapiens, UniProt P01116, G12R); experiment: Disrupting RAS-effector binding HTRF assay, Raf1 RBD-KRAS G12R-GppNHp; details: PPI HTRF, 50 nM Avi-KRAS G12R GppNHp, compound titration 30-0.0045 μM; read-out: Raf1 RBD-KRAS G12R-GppNHp disruption
T3 construct: 50 nM Avi-KRAS G12R (1-169) GppNHp/RAF1 RBD-3×FLAG (52-151)
Experimental: as §3, §4, §5, §6, §7, §8

[6] = biological target: T4, Avi-KRAS WT (1-169) GppNHp/RAF1 RBD-3×FLAG (52-151) (Homo sapiens, UniProt P01116); experiment: Disrupting RAS-effector binding HTRF assay, Raf1 RBD-KRAS WT-GppNHp; details: PPI HTRF, 50 nM Avi-KRAS WT GppNHp, compound titration 30-0.0045 μM; read-out: Raf1 RBD-KRAS WT-GppNHp disruption
T4 construct: 50 nM Avi-KRAS WT (1-169) GppNHp/RAF1 RBD-3×FLAG (52-151)
Experimental: as §3, §4, §5, §6, §7, §8

T2 sequence (P01116 1-169 isoform P01116-2 G12V limits assumed): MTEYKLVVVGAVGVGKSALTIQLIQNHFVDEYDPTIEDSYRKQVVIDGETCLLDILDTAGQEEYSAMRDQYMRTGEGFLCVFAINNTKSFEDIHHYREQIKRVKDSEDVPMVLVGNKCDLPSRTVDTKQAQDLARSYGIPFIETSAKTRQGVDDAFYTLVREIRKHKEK
T4 sequence (P01116 1-169 isoform P01116-2 limits assumed): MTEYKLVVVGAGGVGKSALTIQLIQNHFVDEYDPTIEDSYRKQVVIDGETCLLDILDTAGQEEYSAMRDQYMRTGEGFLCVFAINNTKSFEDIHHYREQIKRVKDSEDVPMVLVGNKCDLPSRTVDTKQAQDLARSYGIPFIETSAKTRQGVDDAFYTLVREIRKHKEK
T3 sequence (P01116 1-169 isoform P01116-2 G12R limits assumed): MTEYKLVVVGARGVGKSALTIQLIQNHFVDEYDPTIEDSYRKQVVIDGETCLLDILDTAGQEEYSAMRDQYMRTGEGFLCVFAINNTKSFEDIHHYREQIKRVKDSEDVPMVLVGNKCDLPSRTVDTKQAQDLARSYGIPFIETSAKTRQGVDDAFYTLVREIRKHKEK
T1 sequence (P01116 1-169 isoform P01116-2 G12D limits assumed): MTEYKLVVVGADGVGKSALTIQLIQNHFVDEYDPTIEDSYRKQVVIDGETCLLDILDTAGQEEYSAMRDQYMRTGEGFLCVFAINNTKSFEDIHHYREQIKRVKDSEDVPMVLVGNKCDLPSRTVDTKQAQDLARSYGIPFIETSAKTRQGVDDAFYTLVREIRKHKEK

N#Cc1c(N)sc2c(F)ccc(-c3c(C(F)(F)F)cc4c(N5CC6CCC(C5)N6)nc(O[C@H]5CCOC5)nc4c3F)c12 [Compound 69]
IC50 ([1]; 1 h): ≤ 0.1 µM
IC50 [2]: > 10 µM

CC(=O)Nc1nc(N2CC3CCC(C2)N3)c2cc(C(F)(F)F)c(-c3ccc(F)c4sc(N)c(C#N)c34)c(F)c2n1 [Compound 28]
IC50 [3]: 1 to 10 µM
IC50 [4]: > 10 µM
IC50 [5]: > 10 µM
IC50 [6]: > 10 µM
IC50 ([1]; 1 h): ≤ 0.1 µM
IC50 [2]: > 10 µM

N#Cc1c(N)sc2c(F)ccc(-c3c(C(F)(F)F)cc4c(N5CC6CCC(C5)N6)nc(OC5CCOCC5)nc4c3F)c12 [Compound 70]
IC50 ([1]; 1 h): ≤ 0.1 µM
IC50 [2]: > 10 µM

CO[C@H](C)COc1nc(N2CC3CCC(C2)N3)c2cc(C(F)(F)F)c(-c3ccc(F)c4sc(N)c(C#N)c34)c(F)c2n1 [Compound 66]
IC50 ([1]; 1 h): ≤ 0.1 µM
IC50 [2]: > 10 µM

CO[C@@H](C)COc1nc(N2CC3CCC(C2)N3)c2cc(C(F)(F)F)c(-c3ccc(F)c4sc(N)c(C#N)c34)c(F)c2n1 [Compound 72]
IC50 ([1]; 1 h): ≤ 0.1 µM
IC50 [2]: > 10 µM

N#Cc1c(N)sc2c(F)ccc(-c3c(C(F)(F)F)cc4c(N5CC6CCC(C5)N6)nc(O[C@@H]5CCOC5)nc4c3F)c12 [Compound 68]
IC50 ([1]; 1 h): ≤ 0.1 µM
IC50 [2]: > 10 µM

CCCOc1nc(N2CC3CCC(C2)N3)c2cc(C(F)(F)F)c(-c3ccc(F)c4sc(N)c(C#N)c34)c(F)c2n1 [Compound 3]
IC50 [3]: 1 to 10 µM
IC50 [4]: > 10 µM
IC50 [5]: > 10 µM
IC50 [6]: 1 to 10 µM
IC50 ([1]; 1 h): 0.1 to 1 µM

N#Cc1c(N)sc2c(F)ccc(-c3c(C(F)(F)F)cc4c(N5CC6CCC(C5)N6)nc(OC5CC(O)C5)nc4c3F)c12 (stereo not drawn) [Compound 12]
IC50 [3]: 1 to 10 µM
IC50 [4]: > 10 µM
IC50 [5]: > 10 µM
IC50 [6]: 1 to 10 µM
IC50 [1]: 0.1 to 1 µM

COC[C@H](C)Oc1nc(N2CC3CCC(C2)N3)c2cc(C(F)(F)F)c(-c3ccc(F)c4sc(N)c(C#N)c34)c(F)c2n1 [Compound 71]
IC50 ([1]; 1 h): ≤ 0.1 µM
IC50 [2]: > 10 µM

N#Cc1c(N)sc2c(F)ccc(-c3c(C(F)(F)F)cc4c(N5CC6CCC(C5)N6)nc(N5CCC5)nc4c3F)c12 [Compound 14]
IC50 [3]: 1 to 10 µM
IC50 [4]: > 10 µM
IC50 [5]: > 10 µM
IC50 [6]: 1 to 10 µM
IC50 ([1]; 1 h): 0.1 to 1 µM

N#Cc1c(N)sc2c(F)ccc(-c3c(C(F)(F)F)cc4c(N5CC6CCC(C5)N6)nc(OCCc5cn[nH]c5)nc4c3F)c12 [Compound 19]
IC50 [3]: 1 to 10 µM
IC50 [4]: > 10 µM
IC50 [5]: > 10 µM
IC50 [6]: 1 to 10 µM
IC50 ([1]; 1 h): ≤ 0.1 µM

N#Cc1c(N)sc2c(F)ccc(-c3c(C(F)(F)F)cc4c(N5CC6CCC(C5)N6)nc(N5CC[C@H](O)C5)nc4c3F)c12 [Compound 4]
IC50 [3]: 1 to 10 µM
IC50 [4]: > 10 µM
IC50 [5]: > 10 µM
IC50 [6]: 1 to 10 µM
IC50 ([1]; 1 h): 0.1 to 1 µM

COC[C@@H](C)Oc1nc(N2CC3CCC(C2)N3)c2cc(C(F)(F)F)c(-c3ccc(F)c4sc(N)c(C#N)c34)c(F)c2n1 [Compound 67]
IC50 ([1]; 1 h): ≤ 0.1 µM
IC50 [2]: > 10 µM

N#Cc1c(N)sc2c(F)ccc(-c3c(C(F)(F)F)cc4c(N5CC6CCC(C5)N6)nc(OCCc5ccccc5)nc4c3F)c12 [Compound 13]
IC50 [3]: 1 to 10 µM
IC50 [4]: > 10 µM
IC50 [5]: > 10 µM
IC50 [6]: > 10 µM
IC50 ([1]; 1 h): 0.1 to 1 µM

N#Cc1c(N)sc2c(F)ccc(-c3c(C(F)(F)F)cc4c(N5CC6CCC(C5)N6)nc(OC5CC(O)C5)nc4c3F)c12 (stereo not drawn) [Compound 11]
IC50 [3]: 1 to 10 µM
IC50 [4]: > 10 µM
IC50 [5]: > 10 µM
IC50 [6]: > 10 µM
IC50 ([1]; 1 h): 0.1 to 1 µM

CN(C)c1nc(N2C[C@H]3CC[C@@H](C2)N3)c2cc(C(F)(F)F)c(-c3ccc(F)c4sc(N)c(C#N)c34)c(F)c2n1 [Compound 10, 4-(4-((1R,5S)-3,8-diazabicyclo[3.2.1]octan-3-yl)-2-(dimethylamino)-8-fluoro-6-(trifluoromethyl)quinazolin-7-yl)-2-amino-7-fluorobenzo[b]thiophene-3-carbonitrile]
IC50 [3]: 1 to 10 µM
IC50 [4]: > 10 µM
IC50 [5]: > 10 µM
IC50 [6]: > 10 µM
IC50 ([1]; 1 h): > 1 µM

CC(C)Oc1nc(N2CC3CCC(C2)N3)c2cc(C(F)(F)F)c(-c3ccc(F)c4sc(N)c(C#N)c34)c(F)c2n1 [Compound 8]
IC50 [3]: 1 to 10 µM
IC50 [4]: > 10 µM
IC50 [5]: > 10 µM
IC50 [6]: 1 to 10 µM
IC50 ([1]; 1 h): 0.1 to 1 µM

N#Cc1c(N)sc2c(F)ccc(-c3c(C(F)(F)F)cc4c(N5CC6CCC(C5)N6)nc(N5CCNC(=O)CC5)nc4c3F)c12 [Compound 25]
IC50 [3]: 1 to 10 µM
IC50 [4]: > 10 µM
IC50 [5]: > 10 µM
IC50 [6]: 1 to 10 µM
IC50 ([1]; 1 h): 0.1 to 1 µM

Cc1nc(N2C[C@H]3CC[C@@H](C2)N3)c2cc(C(F)(F)F)c(-c3ccc(F)c4sc(N)c(C#N)c34)c(F)c2n1 [Compound 22, 4-(4-((1R,5S)-3,8-diazabicyclo[3.2.1]octan-3-yl)-8-fluoro-2-methyl-6-(trifluoromethyl)quinazolin-7-yl)-2-amino-7-fluorobenzo[b]thiophene-3-carbonitrile]
IC50 [3]: 1 to 10 µM
IC50 [4]: > 10 µM
IC50 [5]: > 10 µM
IC50 [6]: 1 to 10 µM
IC50 ([1]; 1 h): ≤ 0.1 µM
